Results taken from patent publication US9089486B2, “Process for the preparation of a pharmaceutical composition comprising ezetimibe” (LEK PHARMACEUTICALS D.D., priority 2009, dated 2015).
Read-outs that look alike come from different tables or passages of the source.

How the values were obtained:
[1] = Particle size of ezetimibe by Malvern Mastersizer; assay type: physicochemical; details: ezetimibe particles, lactose in the blend dissolved
Description: After mixing of blend 2 in a high shear mixer, a good particle distribution could be reached. The size of the ezetimibe particles was not essentially changed.

[2] = cited from earlier work; for solubility in ethanol, methanol, and acetone: organic solvents
[3] = ambient temperature; cited from earlier work

O=C1[C@H](CC[C@H](O)c2ccc(F)cc2)[C@@H](c2ccc(O)cc2)N1c1ccc(F)cc1 [Ezetimibe, ezetimibe]
Particle size d(0.1) [1]: 0.43 μm
Particle size d(0.5) [1]: 7.54 μm
Particle size d(0.9) [1]: 16.87 μm
solubility in ethanol, methanol, and acetone [2]: freely to very soluble
solubility in ethanol, methanol, and acetone ([2]; listed as ezetimibe): soluble
solubility in water [2]: practically insoluble
solubility in water ([2]; listed as ezetimibe): poorly soluble
stability [3]: stable
